Measurements published in US20230201240A1, “TREATMENT OF ADVANCED METASTATIC CANCER” (Can-Fite Biopharma Ltd., priority 2021, published 2023).
Entries after “also recorded” stand apart in the source; their conditions may differ. Where two headings read alike, the source gives them in different places.

What was measured:
HCC = settings: syngeneic orthotopic and xenograft models; cited from earlier work
[1] = tested on: advanced HCC and CPB cirrhosis; test: Phase II randomized, double-blind, placebo-controlled study of namodenoson in advanced HCC with CPB cirrhosis (NCT02128958); format: in vivo, human
Description: The diagnosis of HCC in subjects without underlying cirrhosis at the time of diagnosis required cytology and/or histology; for subjects with underlying cirrhosis at the time of diagnosis, HCC diagnosis was established according to the American Association for the Study of Liver Diseases practice guidelines algorithm [Marrero J. A., et al., Hepatology. 2018; 68:723-750]. For subjects who had tolerated sorafenib, ≥3 weeks of prior treatment was required, terminating at ≥2 weeks before study entry. Inclusion criteria included: ECOG PS≤2; having CPB cirrhosis (i.e., CP score 7-9); aspartate aminotransferase (AST) and alanine aminotransferase (ALT) levels ≤5 times the upper limit of normal (ULN); total bilirubin, ≤3.0 mg/dL; serum albumin, ≥2.8 g/dL; prothrombin time (PT), ≤6 s longer than control; serum creatinine, ≤2.0 mg/dL; absolute neutrophil count, […]; and platelet count, […]. Exclusion criteria included: the presence of hepatic encephalopathy; and gastrointestinal hemorrhage requiring transfusion occurring within the past 4 weeks.
This was a multicenter, randomized, double-blind, placebo-controlled clinical trial (ClinicalTrials.gov identifier NCT02128958). The trial was conducted at 15 sites in Israel, Europe, and the United States. Subjects were enrolled by the participating centers and were randomly assigned 2:1, using a central randomization schedule generated by an independent biostatistician with no stratification prior to randomization. Patients were randomized to either namodenoson (Cl-IB-MECA) 25 mg or matching placebo, administered orally every 12 hours until discontinuation due to intolerance, withdrawal of consent, or death. Though treatment was administered in a continuous manner, the treatment period was divided into 4-week cycles for the purpose of data recording. No crossover was initially allowed; however, by protocol amendment, patients that continued with blinded treatment were offered namodenoson (25 mg twice daily) upon unblinding of the treatment assignments. All study site personnel were blinded to patients' treatment throughout the study period. The study was approved by all relevant national regulatory authorities and local Ethics Committees/Institutional Review Boards. The study was conducted in accordance with the Declaration of Helsinki, and written informed consent was obtained from all the patients.
The primary endpoint of the study was overall survival (OS). Secondary endpoints were progression-free survival (PFS), overall response rate (ORR), disease control rate (DCR), and safety. […] 2019, 70:1262-1277]. Disease response assessment was evaluated locally by 2 independent blinded radiologists using Response Evaluation Criteria in Solid Tumors (RECIST) version 1.1 [Eisenhauer E. A., et al. Eur. J. Cancer. 2009; 45:228-247]. Tumor status was assessed at baseline and every 8 weeks thereafter by computed tomography scan or magnetic resonance imaging. Safety was monitored through assessments of AEs using the US National Cancer Institute's Common Terminology Criteria for Adverse Events (CTCAE) v4.03. Changes from baseline in vital signs, clinical laboratory parameters, electrocardiograms, physical examinations, and ECOG PS were also assessed. AFP levels were assessed at baseline and every 4 weeks thereafter, as were laboratory parameters associated with hepatic dysfunction and cirrhosis, such as serum ALT, AST, bilirubin, and albumin levels, PT, and international normalized ratio. ALBI scores were calculated from the albumin and bilirubin levels, as previously described [Johnson P. J., et al. J. Clin. Oncol. 2015; 33:550-558].
Power calculation determined that 75 deaths, assuming a hazard ratio of 0.5, would provide 80% power for the log-rank test at a significance level of 0.05. Primary efficacy analyses were performed on the ITT population. Descriptive statistics were used to summarize patient/tumor characteristics and safety. […]

[2] = tested on: advanced unresectable HCC; settings: cited from earlier work
[3] = 9 patients with Child-Pugh Score 9
[4] = 34 namodenoson-treated patients with post-baseline assessment
[5] = n = 34 with at least 1 post-baseline assessment
[6] = patients with Child-Pugh score 7
[7] = patients with Child-Pugh score 8

CNC(=O)[C@H]1O[C@@H](n2cnc3c(NCc4cccc(I)c4)nc(Cl)nc32)[C@H](O)[C@@H]1O [namodenoson, 2-chloro-N^6-(3-iodobenzyl)-adenosine-5′-N-methyluronamide]
effect towards HCC (HCC): induces an apoptotic effect | treatment-related deaths ([1]; 25 mg BID oral): No treatment-related deaths | median OS [1, 3]: 3.5 months | median PFS [1, 3]: 2.2 months | PR achieved, number of patients [1, 4]: 3 patients | PR achieved, share of patients [1, 4]: 9% | patients who experienced CR [1, 4]: one patient | OS HR vs placebo ([1]; Child-Pugh score 7, 95% CI 0.45-1.43, p=0.46): 0.81 | PFS HR vs placebo ([1]; Child-Pugh score 7, 95% CI 0.51-1.55, p=0.67): 0.89 | PFS HR vs placebo ([1]; Child-Pugh score 8, 95% CI 0.23-2.17, p=0.53): 0.71 | OS HR vs placebo ([1]; Child-Pugh score 8, 95% CI 0.28-2.77, p=0.83): 0.88 | survival of single patient in Open Label Extension ([1]; advanced metastatic HCC, CPB7, 25 mg orally twice a day): survived five years | response of single patient in Open Label Extension ([1]; advanced metastatic HCC, CPB7, 25 mg orally twice a day for 5 years): Complete Response (CR); also recorded: complete remission of the cancer | mean serum albumin levels and albumin-bilirubin (ALBI) scores ([1]; in vivo): did not change significantly | withdrawals and dose reductions attributable to namodenoson ([1]; in vivo, po): no patients withdrew from the study and no dose reductions were attributable to namodenoson | Best observed response (RECIST 1.1): CR [1, 5]: 1 (2.94%) n (%) | Best observed response (RECIST 1.1): PD [1, 5]: 14 (41.2%) n (%) | Best observed response (RECIST 1.1): PR [1, 5]: 3 (8.8%) n (%) | Best observed response (RECIST 1.1): SD [1, 5]: 17 (50.0%) n (%) | 12-month OS rate ([1]; p=0.028 vs placebo, FIG. 1: patients with Child-Pugh Score 7, 25 mg BID): 44% | median OS [1, 6]: 6.9 months | median PFS [1, 6]: 3.5 months | OS [1, 7]: 3.3 months | PFS [1, 7]: 2.1 months | clinical benefits of treatment (scan of chest, abdomen, pelvis) ([1]; single patient, advanced metastatic HCC, CPB7, 25 mg orally twice a day): disappearance of ascites, normal liver function, and the disappearance of peritoneal carcinomatosis | progression-free survival (PFS) superiority over placebo ([1]; whole study population): no superiority | median OS ([1]; whole study population, 25 mg BID oral): 4.1 months | OS hazard ratio [HR] vs placebo ([1]; whole study population, 95% CI 0.49-1.38, p=0.46): 0.82 | Median overall survival (OS) ([2]; CPB patients (28%)): 8.1 months | safety and tolerability ([2]; in vivo): safe and well-tolerated | Median overall survival (OS) ([2]; whole study population, 67% failed prior sorafenib): 7.8 months
